Test results as given in publication PMC7385413 (Frontiers in Neuroscience, 2020).
“And” between values parts separate entries of the source, which are not always exact repeats. Identical values can stand only once. Like-named read-outs stand apart in the source and are kept apart here.

Legend:
B6-SJL mice [1] = conditions: ref White et al. (2015), cited from earlier work
B6-SJL mice [2] = type: in vivo
C57Bl/6J mice [3] = system: C57Bl/6J mice
hKOPr [4] = assay: Bias factor, G-protein (cAMP) vs β-arrestin2, U50,488 as reference ligand; conditions: for Signaling bias in words: bias calculation relative to U50,488; for Bias factor: relative to U50,488, 1 balanced, >1 G-protein biased, <1 β-arrestin2 biased
B6-SJL mice [5] = assay: Cumulative dose-response warm water tail-withdrawal assay; type: in vivo; conditions: cumulative s.c. doses; for ED50: Mus musculus, sc, 0.5 h, 50°C, latency 30 min post-injection
Description: (§1) On the 2 days prior to the test day, mice were restrained in transparent plastic tube restrainers (internal diameter 24 mm) for 5 min daily, to reduce restraint stress. Tail-withdrawal latencies were measured by immersing one-third of the distal portion of the tail in a warm water bath (50 ± 0.5°C) and the time to show the withdrawal response recorded. A maximum tail immersion cut-off of 10 s was used to avoid tissue damage and allow for repeated exposure to the thermal stimulus. On the day of the experiment, the baseline latency for each animal was measured by averaging three predrug tail-withdrawal latencies, with successive measurements taken at least 5 min apart. Following the experimental procedure, the percentage maximum possible effect (%MPE) was calculated for each animal at each time point by using the following formula:
(§2) %MPE=(testlatency-baselinelatency/10-baselinelatency)× 100
The cumulative dose-response effects were evaluated using a within animal design, as previously described ([Bohn et al., 2000]; [Paton et al., 2017]; [Sherwood et al., 2017]). Briefly, mice were given s.c. injections at increasing concentrations to create cumulative doses in a volume of 5 μL/g of weight into the scruff of the neck, the left flank and the right flank in sequence to avoid continuous injections into the same area. At 30 min post-injection, the tail-withdrawal latency was measured and the next cumulative dose administered immediately after. […] Non-linear regression analysis was used to determine potency [median effective dose (ED50)] and efficacy calculated by normalizing data to the prototype KOPr agonist U50,488 [maximum dose achieved (Emax)].

Sprague–Dawley rats = system: Sprague–Dawley rats; design: method as in Riley et al., 2014; Mathew, 2019; conditions: 16-Bromo SalA 1 mg/kg; 16-Ethynyl SalA 0.3–2 mg/kg; ref Riley et al., 2014; Mathew, 2019; cited from earlier work
B6-SJL mice [6] = assay: Intraplantar 2% formaldehyde model, i.p. treatment; type: in vivo; conditions: for Time of significant reduction of pain-related behavioral score: vs vehicle/formaldehyde; for Area under the curve, phase I and phase II pain-related behavior: phase I 0–15 min, phase II 20–60 min
Description: The Intraplantar 2% formaldehyde model was carried out as previously described ([Paton et al., 2017]; [Sherwood et al., 2017]). The custom-made chamber (27.5 × 18.5 cm) sat on a glass surface with a 45° angle mirror underneath to capture the behaviors via a video camera. The mice were habituated to the test enclosure for 15 min before testing. The mice were given KOPr agonist or vehicle treatment via i.p. injection 5 min prior to the administration of 20 μL of formaldehyde (2% in PBS) or PBS alone via intraplantar (i.pl.) injection. The animals were recorded for 60 min. The methods of [Dubuisson and Dennis (1977)] were used to assess the pain-like behavior using a weight-bearing score. […] Scores were assessed every 5 s and averaged for every 5 min time period. For the area under the curve analysis, the two phases were separated out as follows: 0–15 min phase one nociceptive pain-related behavior; and 20–60 min phase two inflammatory pain-related behavior.

hKOPr [7] = conditions: read-out: EC50 [35S]GTP-γ-S; cited from earlier work
B6-SJL mice [8] = assay: Warm water tail-withdrawal assay, time course (duration of action); type: in vivo; conditions: 50°C, vs vehicle
Description: as §1, §2
To measure the duration of action, the tail-withdrawal latencies were measured over a time-course as previously described ([Simonson et al., 2015]; [Paton et al., 2017]). Following the baseline latency measurements, mice were given an i.p. injection of either KOPr agonist or vehicle and the latency to tail-withdrawal behavior determined at 5, 10, 15, 30, 45, 60, 90, and 120 min for each animal in a repeated measures design.

rats [9] = system: rats; design: method as in Riley et al., 2014; conditions: ref Riley et al., 2014; cited from earlier work
hKOPr [10] = biological target: T1, hKOPr (Homo sapiens, UniProt P41145); assay: Inhibition of forskolin-induced cAMP accumulation (HitHunter) in CHO cells expressing hKOPr; type: cell-based; design: host or cells: CHO
C57Bl/6J mice [11] = system: C57Bl/6J mice; remark: listed apart in the source
B6-SJL mice [12] = system: B6-SJL mice
B6-SJL mice [13] = conditions: cited from earlier work
rats [14] = conditions: ref Ewald et al., 2017; cited from earlier work
B6-SJL mice [15] = system: B6-SJL mice; design: method as in McCurdy et al. (2006); conditions: 2–4 mg/kg, 52°C, male Swiss mice; ref McCurdy et al. (2006); cited from earlier work
male NIH Swiss mice = conditions: mouse, in vivo; cited from earlier work
B6-SJL mice [16] = type: in vivo; remark: listed apart in the source
hKOPr [17] = biological target: T1, hKOPr; assay: β-arrestin2 recruitment (PathHunter) in U2OS cells expressing β-arrestin2 and hKOPr; type: cell-based; design: host or cells: U2OS
hKOPr [18] = biological target: T1, hKOPr; design: host or cells: CHO; conditions: cited from earlier work
[19] = SalA 2 mg/kg i.p., analogs 1–2 mg/kg i.p.

| SMILES | Duration of action, hot-plate (B6-SJL mice [2]; mouse, in vivo) [min] | Number of head dips vs vehicle (C57Bl/6J mice [3]; mouse, in vivo) | Open arm entries vs vehicle (C57Bl/6J mice [3]; mouse, in vivo) | Time in open area vs vehicle (C57Bl/6J mice [3]; mouse, in vivo) | Signaling bias in words (hKOPr [4]) | Bias factor (hKOPr [4]) | ED50 (B6-SJL mice [5]) [mg/kg] | Effect on spontaneous locomotor activity (Sprague–Dawley rats) | Time of significant reduction of pain-related behavioral score (B6-SJL mice [6]; 1 mg/kg i.p.) | Area under the curve, phase I and phase II pain-related behavior (B6-SJL mice [6]; 1 mg/kg i.p.) | Area under the curve, phase I and phase II pain-related behavior (B6-SJL mice [6]; 2 mg/kg i.p.) | EC50 (hKOPr [7]) [nM] | Time of significant antinociceptive effect, tail-withdrawal (B6-SJL mice [8]; 1 mg/kg i.p.) [min] | Drug-seeking in cocaine prime-induced reinstatement (rats [9]) | Inhibition of forskolin-induced cAMP accumulation Emax ± SEM (hKOPr [10]) | Marbles buried vs vehicle (C57Bl/6J mice [11]; mouse, in vivo) | further results |
| --- | --- | --- | --- | --- | --- | --- | --- | --- | --- | --- | --- | --- | --- | --- | --- | --- | --- |
| COC(=O)[C@@H]1C[C@H](OC(=O)CSC#N)C(=O)[C@H]2[C@@]1(C)CC[C@H]1C(=O)O[C@H](c3ccoc3)C[C@]21C [RB-64] | – | – | – | – | – | – | – | – | – | – | – | – | – | – | – | – | Motor deficits, rotarod (B6-SJL mice [1]; C57BL/6J mice): did not cause any motor deficits |
| COC(=O)[C@@H]1C[C@H](OC(C)=O)C(=O)[C@H]2[C@@]1(C)CC[C@H]1C(=O)O[C@H](c3ccoc3Br)C[C@]21C [16-Bromo SalA, 16-Bromo Salvinorin A] | […] | did not have any effect | did not have any effect | did not have any effect | G-protein biased | 7.7 G | 2.06 | did not have an effect | […] | did not show a significant reduction | did not show a significant reduction | […] | […] | attenuated drug-seeking | 98.8 ± 1.84 | did not alter the number of marbles buried | Time of significant reduction of pain-related behavioral score (B6-SJL mice [6]; 2 mg/kg i.p.): […]; Time of sedative effects (decreased latency to fall) (B6-SJL mice [12]; B6-SJL, mouse, in vivo): […] |
| COC(=O)[C@@H]1C[C@H](OC(C)=O)C(=O)[C@H]2[C@@]1(C)CC[C@H]1C(=O)O[C@H](c3ccoc3)C[C@]21C [SalA, Salvinorin A, reference compound] | – | – | – | – | – | – | – | – | – | – | – | 2.1 ± 0.6 | – | – | – | – | Duration of action, hot-plate (B6-SJL mice [2]; 2 mg/kg i.p., 50°C hot-plate): 30 min; Duration of action, tail-withdrawal (B6-SJL mice [13]; 2–4 mg/kg, male Swiss mice, ref McCurdy et al. (2006)): 20 min; Duration of antinociceptive action, tail-withdrawal (B6-SJL mice [13]; authors' model, ref Paton et al., 2017): 30 min; Number of head dips vs vehicle (C57Bl/6J mice [3]; [19]): reduced; Open arm entries vs vehicle (C57Bl/6J mice [3]; [19]): reduced; Time in open area vs vehicle (C57Bl/6J mice [3]; SalA 2 mg/kg i.p., analogs 1–2 mg/kg i.p., 10 min after injection, 5 min test): reduced; Anxiogenic effects in the elevated plus maze (rats [14]): has anxiogenic effects; Duration of action, hot-plate (B6-SJL mice [15]): 10 min; Duration of disrupted climbing behavior (male NIH Swiss mice): 5 min; Marbles buried vs vehicle (C57Bl/6J mice [11]; SalA 2 mg/kg i.p., analogs 1–2 mg/kg i.p., 30 min): increase in the percentage of marble buried; Time of significant motor incoordination (decreased latency to fall) (B6-SJL mice [12]; 2 mg/kg i.p., accelerating rotarod 4 to 40 rpm): 15 to 30 min; Duration of motor incoordination, rotarod (B6-SJL mice [1]; 3 and 10 mg/kg, female and male C57BL/6J mice): up to 30 min; Area under the curve, phase I and II pain-related behavior (B6-SJL mice [16]; 2 mg/kg i.pl.): reduced both phases of pain-related behavior |
| C#Cc1occc1[C@@H]1C[C@]2(C)[C@H]3C(=O)[C@@H](OC(C)=O)C[C@@H](C(=O)OC)[C@]3(C)CC[C@H]2C(=O)O1 [16-Ethynyl SalA, 16-Ethynyl Salvinorin A] | 30 | reduced | reduced | reduced | balanced agonist | 1.0 | 1.54 | did not have an effect | 25 to 35 min | not 1 mg/kg | reduced the pain-related behavioral scores | – | 10 to 15 | attenuated drug-seeking | 101 ± 1.79 | did not alter the number of marbles buried | EC50 (hKOPr [17]): 7.35 nM; Antinociceptive effect compared at the 30 min time point, hot-plate (B6-SJL mice [2]; mouse, in vivo): greater antinociceptive effect than both SalA and 16-Bromo SalA; Fold increase in potency at KOPr compared to 16-Bromo SalA (hKOPr [18]): 2 fold; Emax tail-withdrawal (B6-SJL mice [5]; normalized to U50,488): 171.0 ± 21.5%; Effect of nor-BNI pre-treatment on the AUC reduction (B6-SJL mice [6]; 2 mg/kg i.p., nor-BNI s.c. 24 h prior): nor-BNI significantly reversed the effect; Time of significant antinociceptive effect, tail-withdrawal (B6-SJL mice [8]; 2 mg/kg i.p.): 5 to 60 min; EC50 (hKOPr [10]; HitHunter, CHO-hKOPr): 0.011 nM; Time of decreased latency to fall (B6-SJL mice [12]; B6-SJL, mouse, in vivo): 15 and 30; Area under the curve, phase I and II pain-related behavior (B6-SJL mice [16]; mouse, in vivo): reduced both phases of pain-related behavior |
